Data taken from publication PMC9635472, “Design, synthesis, and biological evaluation of novel ciprofloxacin derivatives as potential anticancer agents targeting topoisomerase II enzyme” (Journal of Enzyme Inhibition and Medicinal Chemistry, 2022).

Key:
[1] = test system: human prostate carcinoma (PC-3) cell line; experiment: MTT cell viability assay, PC-3 cells; format: cell-based; details: prostate cancer cell line PC-3, treatment for 24 h (table title), means of three experiments, read-out: IC50 (μM* ± SD) PC-3
Protocol: (§1) Human bladder cancer (T-24) and human prostate carcinoma (PC-3) cell lines were obtained from American Type Culture Collection (ATCC; Manassas, VA USA). Cells were maintained in Dulbecco’s modified Eagle medium with 10% foetal bovine serum at 37 °C and 5% CO2. All the operations were carried out under strict aseptic conditions. The culture medium was removed to a centrifuge tube containing 9.0 ml complete culture medium and spanned at approximately 125 × g for 5 to 7 min. The cell layer was rinsed with 0.25% (w/v) trypsin- […] EDTA solution by which all traces of serum-containing inhibitor were removed. Trypsin EDTA solution 2.0 to 3.0 ml was added to a flask and cells were monitored under an inverted microscope until the cell layer was dispersed (usually within 5–15 min). A complete growth medium was added (6.0–8.0 ml), and cells were aspirated by gentle pipetting. The cell pellet was suspended with the recommended complete medium and dispensed into a 75 cm^2 culture flask. The culture vessel containing the complete growth medium was placed in the incubator for 24 h to at 37 °C. The cells were treated with different concentrations (0.39, 1.60, 6.25, 25, and 100 μg/ml) of each of the test compounds or doxorubicin, […], then the plates were examined under the inverted microscope and finally the MTT assay was carried out.
(§2) Anti-cancer activity of the newly synthesised compounds was evaluated in vitro against both T-24 and PC-3 cell lines according to the MTT method. Cells were seeded into 96-well plates (flat bottom) at a density of 10 000 cells/well for 24 h. The vial of MTT to be used was reconstituted with 3 ml of medium or balanced salt solution without phenol red and serum. then, a reconstituted MTT vial was added in an amount equal to 10% of the culture medium volume. Cultures were incubated for 2–4 h depending on the cell type and maximum cell density and removed from the incubator and the formazan crystals were dissolved via the addition of an amount of MTT solubilisation solution (M-8910) equal to the original culture medium volume. ROBONIK P2000 spectrophotometer at a wavelength of 570 nm was used to measure the colour intensity spectrophotometrically. The survival curve of both T-24 and PC-3 cells was obtained by plotting the percentage of surviving cells against the drug after each compound. The IC50 value for each test compound and the reference drug doxorubicin was calculated.
(§3) In this study, all the newly synthesised CP derivatives were subjected to anticancer activity evaluation against bladder (T-24) and prostate cancer (PC-3) cell lines. The compounds were evaluated for their activity using 5 doses determinations (100 μg/ml, 25 μg/ml, 6.25 μg/ml, 1.60 μg/ml, and 0.39 μg/ml). Their half-maximal inhibitory concentration (IC50) values were measured. Doxorubicin was chosen as a reference anticancer drug[65].

[2] = target: T1, human DNA Topo II (Homo sapiens, UniProt P11388); experiment: In vitro DNA Topo II-mediated relaxation assay (supercoiled pBR322); format: biochemical; details: for IC50: means of three experiments, read-out: Topo II IC50 (µM*±SD); for inhibition at 0.1 µM / inhibition at 1 µM / inhibition at 10 µM / inhibition at 100 µM: recombinant Topo II relaxation; for inhibition at 0.1 µM: compound at 0.1 μM, read-out: Percentage of inhibition of Topo II, 0.1 μM; for inhibition at 1 µM: compound at 1 μM, read-out: Percentage of inhibition of Topo II, 1 μM; for inhibition at 10 µM: compound at 10 μM, read-out: Percentage of inhibition of Topo II, 10 μM; for inhibition at 100 µM: compound at 100 μM, read-out: Percentage of inhibition of Topo II, 100 μM
T1 construct: purchased USB Corp., USA
T1 sequence (P11388 whole entry): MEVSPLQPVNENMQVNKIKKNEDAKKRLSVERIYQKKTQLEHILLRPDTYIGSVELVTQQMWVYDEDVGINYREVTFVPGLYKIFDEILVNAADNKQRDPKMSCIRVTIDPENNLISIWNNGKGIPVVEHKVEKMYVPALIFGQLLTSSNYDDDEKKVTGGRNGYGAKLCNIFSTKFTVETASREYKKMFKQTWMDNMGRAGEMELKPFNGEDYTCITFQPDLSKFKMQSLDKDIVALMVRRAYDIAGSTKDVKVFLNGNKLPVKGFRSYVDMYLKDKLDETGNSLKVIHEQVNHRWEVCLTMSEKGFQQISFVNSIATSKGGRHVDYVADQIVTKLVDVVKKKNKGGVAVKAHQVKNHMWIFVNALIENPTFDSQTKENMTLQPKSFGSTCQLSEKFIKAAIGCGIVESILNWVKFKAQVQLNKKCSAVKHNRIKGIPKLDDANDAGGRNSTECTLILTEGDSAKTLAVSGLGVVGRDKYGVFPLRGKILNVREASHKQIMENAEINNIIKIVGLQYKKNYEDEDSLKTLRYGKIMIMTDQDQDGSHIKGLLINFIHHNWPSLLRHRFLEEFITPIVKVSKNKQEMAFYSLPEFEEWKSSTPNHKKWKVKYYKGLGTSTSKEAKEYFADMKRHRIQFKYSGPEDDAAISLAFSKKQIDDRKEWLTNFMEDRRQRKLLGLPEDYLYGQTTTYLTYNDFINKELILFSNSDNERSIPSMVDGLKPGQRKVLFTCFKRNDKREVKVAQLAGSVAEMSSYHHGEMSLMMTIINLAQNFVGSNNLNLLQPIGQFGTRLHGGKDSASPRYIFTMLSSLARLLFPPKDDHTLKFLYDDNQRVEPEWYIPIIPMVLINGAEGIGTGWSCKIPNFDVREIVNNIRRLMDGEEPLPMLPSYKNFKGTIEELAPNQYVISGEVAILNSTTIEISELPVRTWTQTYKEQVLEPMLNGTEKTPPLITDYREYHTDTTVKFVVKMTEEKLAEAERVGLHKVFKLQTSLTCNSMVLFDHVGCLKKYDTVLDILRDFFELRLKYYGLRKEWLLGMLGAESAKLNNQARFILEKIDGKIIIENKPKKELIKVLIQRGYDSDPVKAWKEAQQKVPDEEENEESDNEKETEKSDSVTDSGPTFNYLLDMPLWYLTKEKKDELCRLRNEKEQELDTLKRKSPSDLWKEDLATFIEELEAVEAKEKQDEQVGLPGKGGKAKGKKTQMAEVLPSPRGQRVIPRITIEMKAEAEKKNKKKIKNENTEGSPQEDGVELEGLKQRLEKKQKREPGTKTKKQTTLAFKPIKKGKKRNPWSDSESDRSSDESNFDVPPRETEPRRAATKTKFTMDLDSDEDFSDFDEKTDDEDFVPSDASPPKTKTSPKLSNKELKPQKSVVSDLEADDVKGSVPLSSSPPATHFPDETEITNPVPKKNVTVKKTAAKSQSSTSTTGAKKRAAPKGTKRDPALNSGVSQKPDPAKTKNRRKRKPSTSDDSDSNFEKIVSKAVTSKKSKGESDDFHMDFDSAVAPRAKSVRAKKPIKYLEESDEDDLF
Protocol: DNA Topo II inhibitory activities of the targeted compounds were measured as follows. A mixture of 100 ng of supercoiled pBR322 plasmid DNA (Fermentas, USA) and 2 units of human DNA Topo II (USB Corp., USA) was incubated with and without the prepared compounds in the assay buffer (10 µM Tris-HCl pH 7.9) containing 50 µM NaCl, 4 µM MgCl2, 1 µM EDTA, 1 µM ATP, and 15 mg/ml bovine serum albumin for 30 min at 37 °C. The reaction in a final volume of 10 µl was terminated by the addition of 4 µl of 6 µM EDTA. DNA samples were then electrophoresed on 1% agarose gel containing 0.5 µg/ml ethidium bromide in gel and buffer at high voltage (100–250 v) until the dye front has migrated about 4–6 cm down the gel. with a running buffer of TAE Tris-acetate– EDTA (TAE). Gels were stained for 15 min in water. DNA bands were visualised by transillumination with UV light and quantitated using AlphaI-maker TM (Alpha Innotech Corporation).
Well-known Topo II inhibitor doxorubicin was used as a positive control. The reaction products of Topo II relaxation assays were analysed by electrophoretic mobility and developed in ethidium bromide in the presence of UV light. The inhibitory activities were evaluated at 4 concentrations of 100, 10, 1, and 0.1 μM for all compounds as shown in (Figure 6). Topo II inhibitory activities of the tested compounds are summarised in (Table 2).

[3] = test system: Human bladder cancer (T-24) cell line; experiment: MTT cell viability assay, T-24 cells; format: cell-based; details: bladder cancer cell line T-24, treatment for 24 h (table title), means of three experiments, read-out: IC50 (μM* ± SD) T-24
Protocol: as §1, §2, §3

[4] = test system: active caspase-3; experiment: Active caspase-3 ELISA in T-24 cells; format: cell-based, human; details: 6 at 5.68 μM, 8a at 3.36 μM, means of three experiments
Protocol: The level of the apoptotic marker caspase-3 was measured using The Invitrogen Caspase-3 (active) Human ELISA Kit. The procedure of the used kit was done according to the manufacturer’s instructions.
Caspase-3 (a key effector enzyme) plays an important role in apoptosis since its activation leads to catalysing specific enzymes responsible for DNA fragmentation, which leads to cell death. Apoptosis induction in T-24 cells by compounds 6 and 8a was investigated via caspase 3, compared to doxorubicin as a reference drug.

Row | IC50 [1] [µM] | IC50 [2] [µM] | inhibition at 0.1 µM [2] [%] | inhibition at 1 µM [2] [%] | inhibition at 10 µM [2] [%] | inhibition at 100 µM [2] [%] | melting point [°C] | IC50 [3] [µM] | Structure (SMILES) | Caspase-3 conc. (pg/ml* ± SD) [4] [pg/mL]
1 | 19 ± 0.96 | 3.34 ± 0.18 | 18.4 | 34 | 60.3 | 85.2 | 178 to 180 | 11.5 ± 0.63 | CC(=NNC(=O)CN1CCN(c2cc3c(cc2F)c(=O)c(C(=O)O)cn3C2CC2)CC1)c1ccc(Cl)cc1 [Compound 7b, 7-(4-(2-(2-(1-(4-Chlorophenyl)ethylidene)hydrazinyl)-2-oxoethyl)-piperazin-1-yl)-1-cyclopropyl-6-fluoro-4-oxo-1,4-dihydroquinoline-3-carboxylic acid] | –
2 | 9.35 ± 0.48 | 4.99 ± 0.27 | 13.7 | 27.9 | 55.9 | 83.6 | 256 to 258 | 3.88 ± 0.21 | O=C(CN1CCN(c2cc3c(cc2F)c(=O)c(C(=O)O)cn3C2CC2)CC1)NN=C1CCCCC1 [Compound 7a, 7-(4-(2-(2-Cyclohexylidenehydrazinyl)-2-oxoethyl)piperazin-1-yl)-1-cyclopropyl-6-fluoro-4-oxo-1,4-dihydroquinoline-3-carboxylic acid] | –
3 | 23.1 ± 1.18 | 1.72 ± 0.08 | – | – | – | – | – | 29.1 ± 1.56 | COc1cccc2c1C(=O)c1c(O)c3c(c(O)c1C2=O)C[C@@](O)(C(=O)CO)C[C@@H]3O[C@H]1C[C@H](N)[C@H](O)[C@H](C)O1 [Doxorubicin, reference compound] | 598.8 ± 8.63
4 | 67.2 ± 3.42 | 2.58 ± 0.14 | 23.6 | 40.3 | 57 | 86.5 | 186 to 188 | 4.35 ± 0.24 | O=C(CN1CCN(c2cc3c(cc2F)c(=O)c(C(=O)O)cn3C2CC2)CC1)NNC(=O)Nc1ccc(Cl)c(C(F)(F)F)c1 [Compound 9a, 7-(4-(2-(2-((4-Chloro-3-(trifluoromethyl)phenyl)carbamoyl)-hydrazinyl)-2-oxoethyl)piperazin-1-yl)-1-cyclopropyl-6-fluoro-4-oxo-1,4-dihydroquinoline-3-carboxylic acid] | –
5 | 3.25 ± 0.167 | 1.69 ± 0.09 | 24.8 | 37.7 | 72.6 | 90.2 | 221 to 223 | 10.1 ± 0.55 | O=C(CN1CCN(c2cc3c(cc2F)c(=O)c(C(=O)O)cn3C2CC2)CC1)NNCC(=O)c1ccc([N+](=O)[O-])cc1 [Compound 10c, 1-Cyclopropyl-6-fluoro-7-(4-(2-(2-(2-(4-nitrophenyl)-2-oxoethyl)-hydrazinyl)-2-oxoethyl)piperazin-1-yl)-4-oxo-1,4-dihydroquinoline-3-carboxylic acid] | –
